In patent US11465980B2, “6-membered aza-heterocyclic containing delta-opioid receptor modulating compounds, methods of using and making the same” (Trevena, Inc., priority 2015, dated 2022):

Columns and labels:
rat [1] = test: Hemilesioned rat 6-OHDA model (bar, drag, rotarod tests); assay type: in vivo; conditions: route sc, p < 0.05 vs vehicle
Procedure: Compounds were tested for efficacy in reversing akinesia and bradykinesia in two well accepted rodent Parkinson's disease (PD) models; the haloperidol-induced rat catalepsy and 6-OHDA rat hemiparkinson lesion models.
In the hemilesioned rat 6-OHDA model, the effect of compound on the akinetic response to lesioning of the contralateral forepaw in the bar test and stepping activity as measured by the drag test were determined. […] This assay examines efficacy for reversing PD motor symptoms (i.e. akinesia/bradykinesia and gait abilities). The behavioral readouts will include immobility time in the bar test (akinesia), number of steps in the drag test (akinesia/bradykinesia) and time spent on rod in the rotarod test (overall gait ability, gross motor behavior). Compounds were administered subcutaneously and efficacy was evaluated between 30 and 90 min post dose.

rat [2] = test: Tactile allodynia produced by nitroglycerin (migraine model, rat); assay type: in vivo; conditions: route sc, po, nitroglycerin 10 mg/kg ip, p < 0.05 vs vehicle
adult male C57 mice = test: Tail suspension test (TST); assay type: in vivo, mouse; conditions: route sc, po; p < 0.05 compared to vehicle-treated mice
Procedure: The experiments were performed using adult male C57 mice (6-10 weeks of age, 20-30 g, Hilltop Lab, PA). The mice were housed in standard rodent cages with stainless steel mesh wire bar lids in groups of 4 with controlled temperature and light cycle (6:00 a.m.-6:00 p.m.). Animals were given free access to food (Harlan Teklad Global 18% protein (Madison, Wis.)) and water during a minimum 2-day habituation period to the laboratory. Animals that were used in the study were handled, housed, and sacrificed (using compressed CO2) in accord with the current NIH guidelines regarding the use and care of laboratory animals, and all applicable local, state, and federal regulations and guidelines. Animals are identified by cage number, and by markings applied to the proximal tip of the tail using a permanent marker. Group sizes (n=8, and therefore 30-50 animals per study) provide reliable estimates of treatment effects, and this species and strain of mouse has been recognized as appropriate for pharmacology studies.
To measure efficacy of the compounds the compounds were tested using a tail suspension test. The tail suspension test is a behavioral test used to evaluate the efficacy of antidepressant drugs in rodents. In the TST, mice (n=8/group) were suspended by the tail with tape approximately 30-50 cm above the lab bench. Mice are positioned such that the base of their tail is perpendicular to the lab bench. Each mouse is given 1 trial that last 6 minutes. The total duration of immobility is calculated as the percentage of time that the mouse is immobile. The duration of immobility is the main parameter measured. This is calculated from the cumulated time during which the animals is absent of initiated movements including passive swaying. When antidepressant drugs are administered, immobility is decreased by a variety of classes of antidepressant drugs. One or more of the compounds show antidepressant activity.

COCCOc1cccc([C@@H]2CCN(CCn3cccc3)[C@H](C)[C@H]2COc2ccc3c(c2)C(=O)NC3)c1 (relative stereo) [Compound B1049, (−)-6-{[(trans, trans)-4-[3-(2-methoxyethoxy)phenyl]-2-methyl-1-[2-(1H-pyrrol-1-yl)ethyl]piperidin-3-yl]methoxy}-2,3-dihydro-1H-isoindol-1-one]
≤30 mg/kg: Active Dose (hemilesioned rat 6-OHDA model) (rat [1]) | Active Migraine Doses (rat [2]) | Active TST Dose (adult male C57 mice)
